Reference: ChEMBL document CHEMBL5726363, “Indoline compounds as aldosterone synthase inhibitors” (2017)

target: T1, Cytochrome P450 11B2, mitochondrial (Homo sapiens, UniProt P19099); experiment: HTRF-Based Assay : V79 cell lines stably expressing the either the human CYP11B2 or the human CYP11B1 enzyme were generated using a standard transfection protocol. V79 cells were transfected with plasmids pTriEx3-Hygro-hCyp11B2 or pTriEx3-Hygro-hCyp11B1 using Lipofectamine2000 reagent. V79 cells that stably express the human CYP11B2 or human CYP11B1 enzyme were selected for and maintained in DMEM supplemented with 10% FBS and 400 μg/mL hygromycin for 2 weeks. Single cell clones were generated by infinite dilution in DMEM supplemented with 10% FBS and 400 μg/mL hygromycin until single colonies were obtained. Clones V79-hCYP11B2-CLE9 and V79-hCYP11B1-CL8C7, were determined to produce the most aldosterone and cortisol, respectively, and were selected for inhibitor screening. For testing of inhibitors, cells were harvested at 80% confluency with 0.05% Trypsan-EDTA, washed once in PBS, and reconstituted in DMEM+0.1% BSA media at a cell concentration of 600,000 cells/mL for the CYP11B2 assay and 280,000 cells/mL for the CYP11B1 assay. 25 μL of cells were added to a 384 well tissue culture treated plate and mixed with 0.3 μL of inhibitor or DMSO (1% final DMSO concentration) for 1 hour at 37° C., 5% CO2. After pre-incubation with inhibitor, the reaction was initiated by adding 5 μL of substrate (final concentration of 125 nM 11-deoxycorticosterone for the CYP11B2 assay or 250 nM 11-deoxycortisol for the CYP11B1 assay). The reaction was carried out for 3 hours at 37° C., 5% CO2 and was stopped by harvesting the supernatants. The amount of product in the supernatant (aldosterone for CYP11B2 assay and cortisol for the CYP11B1 assay) was measured using HTRF-based assay kit (Aldosterone HTRF-CisBio#64ALDPEB, Cortisol HTRF-CisBio #63IDC002-CORT).
T1 sequence (P19099 whole entry): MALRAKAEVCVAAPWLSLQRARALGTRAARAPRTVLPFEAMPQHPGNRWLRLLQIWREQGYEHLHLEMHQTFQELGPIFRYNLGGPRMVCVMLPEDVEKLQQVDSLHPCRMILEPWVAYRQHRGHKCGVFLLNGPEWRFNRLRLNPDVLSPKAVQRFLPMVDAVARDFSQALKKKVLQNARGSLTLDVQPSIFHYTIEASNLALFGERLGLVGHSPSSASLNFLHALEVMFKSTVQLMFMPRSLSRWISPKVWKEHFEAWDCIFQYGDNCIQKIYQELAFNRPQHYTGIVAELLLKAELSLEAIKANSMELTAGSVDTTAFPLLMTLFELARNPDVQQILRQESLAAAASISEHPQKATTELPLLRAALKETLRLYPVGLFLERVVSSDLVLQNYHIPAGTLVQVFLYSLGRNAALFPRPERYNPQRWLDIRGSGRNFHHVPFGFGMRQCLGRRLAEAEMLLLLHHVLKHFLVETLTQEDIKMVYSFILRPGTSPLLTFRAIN

Row | Structure (SMILES) | IC50 [nM]
1 | CC(C)C(=O)N1CCc2cc(-c3cncc4ccccc34)ccc21 | 30
2 | O=C(N1CCc2cc(-c3cncc(F)c3)cc(F)c21)C(F)(F)F | 17.4

Compounds with a lower IC50, results first:

Row | IC50 [nM] | Structure (SMILES)
3 | 10.6 | O=C(N1CCc2cc(-c3cncc(F)c3)cc(Cl)c21)C(F)(F)F
4 | 1.4 | CC(=O)N1CCc2cc(-c3cncc(F)c3C)cc(Cl)c21
5 | 0.2 | CC(=O)N1CCc2cc(-c3cnccc3C)cc(F)c21
